Test results taken from patent US10874743B2, “IRAK degraders and uses thereof” (Kymera Therapeutics, Inc., priority 2017, dated 2020).

Columns and labels:
[1] = target: T1, IRAK4 (Homo sapiens, UniProt Q9NWZ3); test: OCI-LY-10 degradation assay (western blot, % IRAK4 degraded after 4 hours); assay type: cell-based; design: endogenous in cells; host or cells: OCI-LY10; details: OCI-LY10 cells, 4 hours; for OCI-LY10 % IRAK4 Degradation (0.01 uM): 0.01 uM compound; for OCI-LY10 % IRAK4 Degradation (0.1 uM): 0.1 uM compound; for OCI-LY10 % IRAK4 Degradation (1 uM): 1 uM compound
T1 sequence (Q9NWZ3 1-460): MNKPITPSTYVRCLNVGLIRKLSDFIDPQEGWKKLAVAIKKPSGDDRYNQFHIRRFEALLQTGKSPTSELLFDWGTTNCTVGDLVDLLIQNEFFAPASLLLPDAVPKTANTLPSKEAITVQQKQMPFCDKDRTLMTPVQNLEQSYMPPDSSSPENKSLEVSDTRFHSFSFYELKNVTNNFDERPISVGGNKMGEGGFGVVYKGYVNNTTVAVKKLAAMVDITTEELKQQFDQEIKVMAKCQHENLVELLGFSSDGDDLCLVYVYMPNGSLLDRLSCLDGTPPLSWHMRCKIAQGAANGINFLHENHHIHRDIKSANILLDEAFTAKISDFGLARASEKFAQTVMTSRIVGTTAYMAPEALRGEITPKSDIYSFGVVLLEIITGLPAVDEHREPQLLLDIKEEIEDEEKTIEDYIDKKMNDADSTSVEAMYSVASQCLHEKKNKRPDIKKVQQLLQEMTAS
How it was run: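 IRAK4 loss after 4 h at 37° C was scored A (>50%), B (>20-50%) or C (<20%) from infrared western blots of RIPA lysates, 20-25 μg protein per lane. Compound was applied at 0.003-10 μM final to OCI-LY10 cells cultured in RPMI-1640 with 20% FBS and 55 μM 2-ME.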

[2] = target: T1, IRAK4; test: OCI-LY-10 MSD assay for IRAK4 DC50; assay type: cell-based; design: endogenous in cells; host or cells: OCI-LY10; details: OCI-LY10 cells, 4 hr incubation, concentration required to degrade 50% of protein
How it was run: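 IRAK4 level was quantified by MSD electrochemiluminescence (anti-IRAK4 capture antibody, rabbit anti-IRAK4 detection antibody) in RIPA lysates of OCI-Ly10 cells. Cells had been treated with compound for 4 hr (8-point, 3-fold serial dilution). Remaining protein versus concentration was fitted to a sigmoidal curve to give DC50.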

OCI-LY10 % IRAK4 Degradation (0.01 uM) [1] | OCI-LY10 % IRAK4 Degradation (0.1 uM) [1] | OCI-LY10 % IRAK4 Degradation (1 uM) [1] | DC50 [2] [nM] | Structure (SMILES)
C (<20% degradation) | C (<20% degradation) | A (>50% degradation) | 500 to 1000 | O=C1CCC(N2C(=O)c3ccc(NC4CCN(CCOCCOCCOCCNCc5ccc(-n6cc(NC(=O)c7coc(-c8ccnc(NCC9CC9)c8)n7)c(C(F)F)n6)cc5)CC4)cc3C2=O)C(=O)N1 (centres unmarked) [I-389]
C (<20% degradation) | C (<20% degradation) | B (>20-50% degradation) | > 1000 | O=C1CCC(N2C(=O)c3cccc(NCCOCCOCCOCC(=O)N4C[C@H](O)C[C@H]4C(=O)NCc4ccc(-n5cc(NC(=O)c6coc(-c7ccnc(NCC8CC8)c7)n6)c(C(F)F)n5)cc4)c3C2=O)C(=O)N1 (some centres unmarked) [I-287]
C (<20% degradation) | B (>20-50% degradation) | A (>50% degradation) | 100 to 500 | O=C1CCC(N2C(=O)c3cccc(NC4CCN(CCOCCOCCOCCNCc5ccc(-n6cc(NC(=O)c7coc(-c8ccnc(NCC9CC9)c8)n7)c(C(F)F)n6)cc5)CC4)c3C2=O)C(=O)N1 (centres unmarked) [I-386]
A (>50% degradation) | A (>50% degradation) | A (>50% degradation) | < 50 | NC(=O)c1nn(-c2ccc(C(=O)NCCOCCOCCn3c(=O)n(C4CCC(=O)NC4=O)c4ccccc43)cc2)cc1NC(=O)c1coc(-c2ccnc(NCC(F)(F)F)c2)n1 (centres unmarked) [I-231]
C (<20% degradation) | B (>20-50% degradation) | C (<20% degradation) | > 1000 | O=C1CCC(N2C(=O)c3cccc(CCCCCN4CCC(n5cc(NC(=O)c6coc(-c7ccnc(NCC8CC8)c7)n6)c(C(F)F)n5)CC4)c3C2=O)C(=O)N1 (centres unmarked) [I-258]
C (<20% degradation) | B (>20-50% degradation) | A (>50% degradation) | 100 to 500 | O=C1CCC(N2C(=O)c3ccc(NC4CCN(CCOCCOCCOCCNC(=O)c5ccc(-n6cc(NC(=O)c7coc(-c8ccnc(NCC9CC9)c8)n7)c(C(F)F)n6)cc5)CC4)cc3C2=O)C(=O)N1 (centres unmarked) [I-272]
C (<20% degradation) | A (>50% degradation) | A (>50% degradation) | 50 to 100 | CN(CCOCCOCCCc1ccc2c(c1)C(=O)N(C1CCC(=O)NC1=O)C2=O)C(=O)c1ccc(-n2cc(NC(=O)c3coc(-c4ccnc(NCC(F)(F)F)c4)n3)c(C(F)F)n2)cc1 (centres unmarked) [I-279]
B (>20-50% degradation) | A (>50% degradation) | A (>50% degradation) | < 50 | NC(=O)c1nn(-c2ccc(CNCCOCCOCCn3c(=O)n(C4CCC(=O)NC4=O)c4ccccc43)cc2)cc1NC(=O)c1coc(-c2ccnc(NCC3CC3)c2)n1 (centres unmarked) [I-319]
B (>20-50% degradation) | A (>50% degradation) | A (>50% degradation) | < 50 | CN(CCNCCCc1ccc2c(c1)C(=O)N(C1CCC(=O)NC1=O)C2=O)C(=O)c1ccc(-n2cc(NC(=O)c3coc(-c4ccnc(NCC5CC5)c4)n3)c(C(N)=O)n2)cc1 (centres unmarked) [I-397]
C (<20% degradation) | C (<20% degradation) | B (>20-50% degradation) | > 1000 | O=C1CCC(N2C(=O)c3cccc(NCCOCCN4CC5(CN(CCOCCNCc6ccc(-n7cc(NC(=O)c8coc(-c9ccnc(NCC%10CC%10)c9)n8)c(C(F)F)n7)cc6)C5)C4)c3C2=O)C(=O)N1 (centres unmarked) [I-350]
C (<20% degradation) | A (>50% degradation) | A (>50% degradation) | 100 to 500 | O=C1CCC(N2C(=O)c3ccc(N4CCN(CCOCCOCCOCCNCc5ccc(-n6cc(NC(=O)c7coc(-c8ccnc(NCC9CC9)c8)n7)c(C(F)F)n6)cc5)CC4)cc3C2=O)C(=O)N1 (centres unmarked) [I-394]
C (<20% degradation) | C (<20% degradation) | C (<20% degradation) | > 1000 | CC(C)(C)[C@H](NC(=O)COCCOCCOCCNc1cccc2c1C(=O)N(C1CCC(=O)NC1=O)C2=O)C(=O)N1C[C@H](O)C[C@H]1C(=O)NCc1ccc(-n2cc(NC(=O)c3coc(-c4ccnc(NCC5CC5)c4)n3)c(C(F)F)n2)cc1 (some centres unmarked) [I-284]
B (>20-50% degradation) | A (>50% degradation) | A (>50% degradation) | < 50 | NC(=O)c1nn(-c2ccc(C(=O)NCCOCCOCCNc3cccc4c3C(=O)N(C3CCC(=O)NC3=O)C4=O)cc2)cc1NC(=O)c1coc(-c2ccnc(N)c2)n1 (centres unmarked) [I-427]
C (<20% degradation) | A (>50% degradation) | A (>50% degradation) | 50 to 100 | O=C1CCC(N2C(=O)c3cccc(OCc4cn(CCOCCOCCNCc5ccc(-n6cc(NC(=O)c7coc(-c8ccnc(NCC9CC9)c8)n7)c(C(F)F)n6)cc5)nn4)c3C2=O)C(=O)N1 (centres unmarked) [I-344]
B (>20-50% degradation) | A (>50% degradation) | A (>50% degradation) | < 50 | O=C1CCC(N2C(=O)c3cccc(NCCNCCCCCNC(=O)c4ccc(-n5cc(NC(=O)c6coc(-c7ccnc(NC8CC8)c7)n6)c(C(F)F)n5)cc4)c3C2=O)C(=O)N1 (centres unmarked) [I-242]
C (<20% degradation) | B (>20-50% degradation) | A (>50% degradation) | 100 to 500 | O=C1CCC(N2C(=O)c3ccc(NC4CCN(CCOCCOCCNC(=O)c5ccc(-n6cc(NC(=O)c7coc(-c8ccnc(NCC9CC9)c8)n7)c(C(F)F)n6)cc5)CC4)cc3C2=O)C(=O)N1 (centres unmarked) [I-270]
B (>20-50% degradation) | A (>50% degradation) | A (>50% degradation) | < 50 | NC(=O)c1nn(-c2ccc(CNCCOCCOCCCc3cccc4c3C(=O)N(C3CCC(=O)NC3=O)C4=O)cc2)cc1NC(=O)c1coc(-c2ccnc(NCC(F)(F)F)c2)n1 (centres unmarked) [I-321]
B (>20-50% degradation) | A (>50% degradation) | A (>50% degradation) | < 50 | Cc1cc(-c2nc(C(=O)Nc3cn(-c4ccc(C(=O)NCCOCCOCCNc5cccc6c5C(=O)N(C5CCC(=O)NC5=O)C6=O)cc4)nc3C(N)=O)co2)ccn1 (centres unmarked) [I-241]
C (<20% degradation) | C (<20% degradation) | A (>50% degradation) | 50 to 100 | CC(=O)O[C@@H]1C[C@@H](C(=O)NCc2ccc(-n3cc(NC(=O)c4coc(-c5ccnc(NCC6CC6)c5)n4)c(C(F)F)n3)cc2)N(C(=O)COCCOCCOCCNc2cccc3c2C(=O)N(C2CCC(=O)NC2=O)C3=O)C1 (some centres unmarked) [I-288]
C (<20% degradation) | A (>50% degradation) | A (>50% degradation) | 50 to 100 | O=C1CCC(N2C(=O)c3cccc(NCCOCCN4CCO[C@H](CNC(=O)c5ccc(-n6cc(NC(=O)c7coc(-c8ccnc(NCC(F)(F)F)c8)n7)c(C(F)F)n6)cc5)C4)c3C2=O)C(=O)N1 (some centres unmarked) [I-281]
